Measurements from publication PMC10892288, “Early Stage Preclinical Formulation Strategies to Alter the Pharmacokinetic Profile of Two Small Molecule Therapeutics” (Pharmaceuticals, 2024).
Converted amounts (≈) assume the structure as drawn. Read-outs that look alike come from different tables or passages of the source.

Columns and labels:
[1] = Body weight change in multiday IP study; format: in vivo; conditions: IP 150 mpk BID, study spanning over 10 days, mice
TEAD = system: TEAD; parameters: method as in PMID 33679401; conditions: cellular assays; read-out: half-maximal inhibitory concentration (IC50) in cellular assays; cited from earlier work
[2] = Vehicle screening for solution or suspension formulations; format: physicochemical
Description: Based on the target concentration, G7883 was screened at 3.3 mg/mL in three different vehicles of 100%PEG400, 10%DMSO in 90%PEG400, and 20%DMSO in 80%PEG400 to generate a stable solution. […] A total of 50% DMSO is the maximum amount compatible with the iPRECIO pump system. Based on the target concentration, G6893 was screened at 5 mg/mL in four different vehicles as follows: 100% PEG400, 20% DMSO in 80% PEG400, 20% DMA and 40% PG in 40% PEG400, and 10% EtOH and 20% HPbCD in 70% water at pH 4.5. G6893 achieved a solution at the target concentration of 5 mg/mL in 100% PEG400 and maintained a solution without precipitation after dilution in PBS buffer.
G7883 was screened in different oil vehicles including corn, coconut, paraffin, soybean, and sunflower oil.

[3] = pKa (physiochemical properties); format: physicochemical
Source text: Table 1 Physiochemical properties of […] and […]. | column: […]; […]

[4] = Solubility in phosphate buffer saline (PBS); format: physicochemical; conditions: phosphate buffered saline (PBS)
[5] = Mouse PK of G7883, PO in MCT vehicle; format: in vivo, female CD-1 mice; conditions: for AUC(0-t) / Cmax / Tmax / bioavailability / half-life: female; for AUC(0-t): CD-1, mouse, plasma, po, read-out: AUC0 to 8; for Cmax / Tmax / bioavailability / half-life: CD-1, plasma
Description: A total of 0.6% w/v Methylcellulose, 0.2% w/v Tween 80 in water (MCT) was prepared by slowly adding Methylcellulose (Methylocel A15 LV; CAS 9004-67-5, Part ID: 64605-500G-F 27.5-31.5% Methoxyl basis, Sigma-Aldrich, St. Louis, MO, USA) in small portions to prevent clumping while stirring into water at 70–80 °C. Once a homogeneous suspension formed, Tween 80 (Polysorbate 80; CAS#9005-65-6 (Polyoxyethylene (20) Sorbitan Monooleate; Tween 80) Part ID: PO138, Spectrum Chemical, New Brunswick, NJ, USA) was added and stirred until fully dissolved. Vehicle was filtered through 0.22 µm PES (Corning REF no. 431098) prior to adding to the compound for dosing. Respective compound was added based on the target concentration to the MCT vehicle and stirred at 35 °C until the power was well-dispersed. Formulations were homogenized through a polytron homogenizer and then sonicated in a water bath sonicator until a homogeneous suspension was achieved.
The pharmacokinetics of G7883 were determined in female CD-1 mice obtained from Charles River Laboratories (Hollister, CA, USA) with a body weight ranging from 20 to 25 g. The pharmacokinetics of G6893 were determined in female C57BL-6 mice (Lingchang/Vital River Laboratory Animal Co., Ltd., Shanghai/Beijing, China) with a body weight ranging from 20 to 35 g. Three mice were given an oral dose of G7883 formulated in 0.6% Methylcellulose, 0.2% Tween80 in water (MCT) at 25 mg/kg and 250 mg/kg with a dosing volume of 10 mL/kg. Food and water were available ad libitum to the animals. Three mice were given an oral dose of G6893 formulated in 0.6% methylcellulose; 0.2% Tween80 in water with pH adjusted to 2.5 at 30 mg/kg and a dose volume of 5 mL/kg. For both compounds, G7883 and G6893, 15 µL of blood was collected serially at 0. 25, 0.5, 1, 2, 4, 6, 8, and 24 h post-dose and diluted in 60 µL of 1.7 mg/mL potassium K2EDTA water. The frozen blood samples were stored at −70 °C or lower until analysis.
All plasma and cell media concentrations of G7883 and G6893 were determined using liquid chromatography–tandem mass spectrometry after protein precipitation with acetonitrile and injection of the supernatant onto the column (Waters ACQUITY UPLC BEH C18 1.7 μm, 2.1 × 50 mm for G7883 and G6893). The aqueous mobile phase was 0.1% formic acid, 2 mM ammonium formate in water/acetonitrile (v:v, 95:5), and the organic mobile phase was 0.1% formic acid, 2 mM ammonium formate in acetonitrile/water (v:v, 95:5). An AB Sciex API 4000 Triple Quad instrument was used for detecting G7883 and G6893 (Figure S2). The electrospray ionization source in both columns was operated in the positive ion and multiple reaction monitoring (MRM) detection modes. The MRM transitions for G7883 and G6893 were m/z 462.2 (Q1) and 253.10 (Q3) and m/z 454.2 (Q1) and 325.9 (Q3), respectively. The dynamic range of both assays was 0.50–50.0 ng/mL, and the total run time was 1.6 min. The lower limit of quantitation of the assay was […], and the dilution quality control concentration was set at 10 ng/mL with acceptance criteria for accuracy and precision of 25%.
All plasma and cell media concentrations of G7883 were determined using liquid chromatography–tandem mass spectrometry after protein precipitation with acetonitrile and injection of the supernatant onto the column (Phenomenex Kinetex XB-C18, 30 × 2.1 mm, 2.6 µm). The aqueous mobile phase was 10 mM of ammonium formate in water, and the organic mobile phase was 0.1% formic acid in acetonitrile. An AB Sciex API 5500 Triple Quad instrument was used for detecting G7883. The electrospray ionization source in both columns was operated in the positive ion and MRM detection modes. The MRM transitions for G7883 were m/z 462.2 (Q1) and 253.10 (Q3), respectively. The dynamic range of the assay was 0.50–50.0 ng/mL, and the total run time was 2 min. […]

[6] = Log P (physiochemical properties); format: physicochemical
[7] = Water solubility (physiochemical properties); format: physicochemical; conditions: water
[8] = 250 mg/kg, PO 250 mpk, mean ± SD

concentration at which a solution was achieved ([2]; 20%DMSO in 80%PEG400): ≥ 3300 µg/mL | solubility in oil vehicle (in words) ([2]; sunflower oil): moderate solubility | pKa [3]: 5.51 | solubility [4]: 89 µg/mL (≈ 178 µM) | AUC0 to 8 ([5]; PO 250 mpk, mean ± SD, 250 mg/kg): 25.1 ± 5.43 µM·h | AUC(0-t) ([5]; 25 mg/kg, PO 25 mpk, mean ± SD): 1.99 ± 0.4 µM·h | AUC(0-t) [5, 8]: 25 µM·h | Cmax ([5]; 25 mg/kg, PO 25 mpk, mean ± SD): 1.25 ± 0.82 µM | Tmax ([5]; 25 mg/kg, PO 25 mpk, mean ± SD): 0.5 h | bioavailability ([5]; 25 mg/kg, PO 25 mpk, mean ± SD, read-out: F): 6.18 ± 1.24% | half-life ([5]; 25 mg/kg, PO 25 mpk, mean ± SD, read-out: t1/2 (converted)): 2.17 ± 0.73 h | Cmax [5, 8]: 6.85 ± 2.24 µM | Tmax [5, 8]: 0.583 ± 0.382 h | bioavailability ([5]; 250 mg/kg, PO 250 mpk, mean ± SD, read-out: F): 7.8 ± 1.69% | half-life ([5]; 250 mg/kg, PO 250 mpk, mean ± SD, read-out: t1/2 (converted)): 2.74 ± 0.201 h | bioavailability ([5]; PO, 25 to 250 mpk, read-out: bioavailability): ~7% | half-life ([5]; PO, 25 to 250 mpk, read-out: plasma half-life (converted)): 2 h | logP [6]: 1.83 | solubility [7]: 85 µg/mL (≈ 170 µM)
SMILES: Cc1nccnc1-c1nn2c(=O)cc(-c3ccc(C4CCCCC4)cc3)[nH]c2c1C(=O)N1CC(CF)C1 [G7883, 5-(4-cyclohexylphenyl)-3-[3-(fluoromethyl)azetidine-1-carbonyl]-2-(3-methylpyrazin-2-yl)-4H-pyrazolo[1,5-a]pyrimidin-7-one]
body weight change [1]: significant decreases in the body weights of mice were observed | IC50 (TEAD): 1.4 µM
